According to patent US20250084101A1, “COMPOUND FOR INHIBITING AND DEGRADING IRAK4, AND PHARMACEUTICAL COMPOSITION AND PHARMACEUTICAL APPLICATION THEREOF” (XIZANG HAISCO PHARMACEUTICAL CO., LTD., priority 2022, published 2025):
Where a name gives a salt, the structure may show the parent alone. Read-outs that look alike come from different tables or passages of the source.

Assays:
IRAK4 protein = target: T1, IRAK4 protein (Homo sapiens, UniProt Q9NWZ3); experiment: IRAK4 degradation activity in hPBMC cells (24 hours); format: cell-based; settings: for Remaining IRAK4 protein IRAK4%: 100 nM, relative to vehicle control
T1 construct: endogenous in cells; host or cells: human peripheral blood mononuclear cells (hPBMC) from healthy volunteers
T1 sequence (Q9NWZ3 1-460): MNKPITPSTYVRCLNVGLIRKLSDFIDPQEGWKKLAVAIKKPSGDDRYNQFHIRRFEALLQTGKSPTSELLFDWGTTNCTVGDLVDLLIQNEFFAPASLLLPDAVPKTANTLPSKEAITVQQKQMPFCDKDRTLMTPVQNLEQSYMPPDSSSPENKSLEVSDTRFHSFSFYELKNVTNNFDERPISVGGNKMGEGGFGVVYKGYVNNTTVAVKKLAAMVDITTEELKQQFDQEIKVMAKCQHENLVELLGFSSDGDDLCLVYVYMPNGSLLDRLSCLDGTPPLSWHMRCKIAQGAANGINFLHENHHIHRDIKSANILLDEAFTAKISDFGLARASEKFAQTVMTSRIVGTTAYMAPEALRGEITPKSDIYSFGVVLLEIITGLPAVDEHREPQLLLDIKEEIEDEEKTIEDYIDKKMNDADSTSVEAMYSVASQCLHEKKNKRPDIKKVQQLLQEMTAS
Description: hPBMC cells are human peripheral blood mononuclear cells. Peripheral venous blood was taken from healthy volunteers, and hPBMCs were isolated using Ficoll density gradient centrifugation (Ficoll-Paque™ PLUS 1.077, GE, Cat. 17-1140-02). Culture conditions: RPMI-1640+10% FBS+1% penicillin-streptomycin solution. The cells were cultured in an incubator at 37° C. and 5% CO2. The cells were plated in a 24-well plate at 1×10^6 cells/well. After plating, compounds at different concentrations were added, and the cells were cultured in an incubator at 37° C. and 5% CO2 for 24 hours. After the culture was completed, the cells were collected, and RIPA lysis buffer (beyotime, Cat. P0013B) was added. The cells were lysed on ice for 20 minutes, and then centrifuged at 12000 rpm at 4° C. for 10 minutes. The protein sample of the supernatant was collected, the protein was quantified using a BCA kit (Beyotime, Cat. P0009), and then the protein was diluted to 1 mg/mL. The expression of IRAK4 (CST, Cat. 4363S) and the internal reference cofilin (CST, Cat. 5175S) were detected using a fully automated western blot quantitative analyzer (Proteinsimple). The expression level of IRAK4 relative to the internal reference was calculated using compass software. The remaining IRAK4 protein IRAK4% relative to the vehicle control group at different doses was calculated using formula (1), and the IRAK4 protein degradation relative to the vehicle control group at different doses was calculated using formula (2), where IRAK4administration was the expression level of IRAK4 in the administration groups at different doses, and IRAK4vehicle was the expression level of IRAK4 in the vehicle control group. An IRAK4 degradation-drug concentration curve was fit using Graphpad Prism 8 software, and the DC50 was calculated.

[1] = target: T2, hERG potassium ion channel (Homo sapiens, UniProt Q12809); experiment: Effect on hERG potassium ion channel (manual patch-clamp, CHO cells); format: cell-based; settings: CHO cells stably expressing hERG, whole cell patch-clamp
T2 construct: expressed in transfected cells; host or cells: CHO (Chinese hamster ovary) cells stably expressing hERG
Text: Experimental platform: electrophysiological manual patch-clamp system
Cell line: Chinese hamster ovary (CHO) cell line stably expressing hERG potassium ion channel
Experimental method: In CHO (Chinese Hamster Ovary) cells stably expressing hERG potassium channel, whole cell patch-clamp technique was used to record hERG potassium channel current at room temperature. The glass microelectrode was made of a glass electrode blank (BF150-86-10, Sutter) by a puller. The tip resistance after filling the liquid in the electrode was about 2-5 MQ. The glass microelectrode can be connected to the patch-clamp amplifier by inserting the glass microelectrode into an amplifier probe. The clamping voltage and data recording were controlled and recorded by the pClamp 10 software through a computer. The sampling frequency was 10 kHz, and the filtering frequency was 2 kHz. After the whole cell records were obtained, the cells were clamped at −80 mV, and the step voltage that induced the hERG potassium current (lhERG) was depolarized from −80 mV to +20 mV for 2 s, then repolarized to −50 mV, and returned to −80 mV after 1 s. This voltage stimulation was given every 10 s, and the administration process was started after the hERG potassium current was confirmed to be stable (at least 1 minute). The compound was administered for at least 1 minute at each test concentration, and at least 2 cells (n≥2) were tested at each concentration.
Data processing: Data analysis processing was carried out by using pClamp 10, GraphPad Prism 5 and Excel software. The inhibition degree of hERG potassium current (peak value of hERG tail current induced at −50 mV) at different compound concentrations was calculated by the following formula:
[formula] • where Inhibition % represents the percentage of inhibition of hERG potassium current by the compound, and l and lo represent the amplitude of hERG potassium current after and before the administration, respectively.
Compound IC50 was calculated using GraphPad Prism 5 software by fitting according to the following equation:
[formula] • where X represents the Log value of the tested concentration of the test sample, Y represents the inhibition percentage at the corresponding concentration, and Bottom and Top represent the minimum and maximum inhibition percentage, respectively.

[2] = Pharmacokinetic test in mice; format: in vivo, ICR mice; settings: plasma, i.g. 10 mg/kg
Description: Experimental animals: Male ICR mice, about 25 g, 6 mice/compound, purchased from Chengdu Ddossy Experimental Animals Co., Ltd.
Test design: On the day of the experiment, 6 ICR mice were randomly grouped according to their body weights. The animals were fasted with water available for 12 to 14 h one day before the administration, and were fed 4 h after the administration.
• Vehicle for intravenous administration: 5% DMA+5% Solutol+90% Saline; • Vehicle for intragastric administration: 5% DMSO+30% PEG400+65% (20% SBE-CD); (DMSO: dimethyl sulfoxide; DMA: dimethylacetamide; Solutol: polyethylene glycol-15-hydroxystearate; PEG400: polyethylene glycol 400; SBE-β-CD: sulfobutyl-β-cyclodextrin; Saline: physiological saline)
Before and after the administration, 0.15 mL of blood was taken from the orbit of the animals under isoflurane anesthesia and placed in an EDTAK2 centrifuge tube. The blood was centrifuged at 5000 rpm and 4° C. for 10 min to collect plasma. The blood collection time points for the intravenous administration group and intragastric administration group were 0 min, 5 min, 15 min, 30 min, 1 h, 2 h, 4 h, 7 h and 24 h. Before analysis and detection, all samples were stored at −60° C. The samples were analyzed quantitatively by LC-MS/MS.

[3] = read-out: IC50 for inhibitory effect on hERG potassium channel current
[4] = male, ICR, mouse, po, 10 mg/kg, read-out: AUC0-t

T2 sequence (Q12809 whole entry): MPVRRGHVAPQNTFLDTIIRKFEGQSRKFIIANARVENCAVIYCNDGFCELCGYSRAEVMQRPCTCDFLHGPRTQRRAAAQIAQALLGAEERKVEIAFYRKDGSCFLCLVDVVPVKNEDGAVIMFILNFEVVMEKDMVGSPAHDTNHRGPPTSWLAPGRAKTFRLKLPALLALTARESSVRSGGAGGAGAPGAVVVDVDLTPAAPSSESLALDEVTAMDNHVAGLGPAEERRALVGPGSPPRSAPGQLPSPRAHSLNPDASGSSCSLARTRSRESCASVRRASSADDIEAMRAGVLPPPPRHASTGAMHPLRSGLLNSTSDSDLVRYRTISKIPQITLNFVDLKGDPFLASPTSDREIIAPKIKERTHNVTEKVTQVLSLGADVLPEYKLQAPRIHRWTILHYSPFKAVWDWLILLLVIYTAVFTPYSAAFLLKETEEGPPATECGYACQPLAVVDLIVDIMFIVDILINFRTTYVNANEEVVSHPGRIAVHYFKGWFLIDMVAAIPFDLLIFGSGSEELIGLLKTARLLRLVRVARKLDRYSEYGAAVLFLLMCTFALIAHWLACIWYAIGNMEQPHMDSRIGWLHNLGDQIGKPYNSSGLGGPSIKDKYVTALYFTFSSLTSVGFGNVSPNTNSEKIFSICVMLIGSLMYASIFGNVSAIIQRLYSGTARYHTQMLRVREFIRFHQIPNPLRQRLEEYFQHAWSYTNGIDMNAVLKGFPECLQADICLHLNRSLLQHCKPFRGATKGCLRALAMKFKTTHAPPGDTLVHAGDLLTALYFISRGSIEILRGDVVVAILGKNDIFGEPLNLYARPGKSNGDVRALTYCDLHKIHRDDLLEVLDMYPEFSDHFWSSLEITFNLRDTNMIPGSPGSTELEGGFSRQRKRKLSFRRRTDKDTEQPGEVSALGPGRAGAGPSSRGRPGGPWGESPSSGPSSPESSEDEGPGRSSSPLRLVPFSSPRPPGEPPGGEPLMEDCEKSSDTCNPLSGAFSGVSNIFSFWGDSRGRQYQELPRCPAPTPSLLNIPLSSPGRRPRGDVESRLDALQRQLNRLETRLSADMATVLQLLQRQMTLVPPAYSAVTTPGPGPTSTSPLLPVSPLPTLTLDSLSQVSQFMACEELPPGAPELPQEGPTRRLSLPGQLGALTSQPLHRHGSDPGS

| DC50 (IRAK4 protein) | Remaining IRAK4 protein IRAK4% (IRAK4 protein) | Compound | IC50 [1, 3] | AUC(0-t) [2, 4] | IC50 ([1]; IC50 for inhibitory effect on hERG potassium channel current) | AUC(0-t) [2] |
| --- | --- | --- | --- | --- | --- | --- |
| < 0.02 µM |  | Cn1nc(C2CCC(=O)NC2=O)c2cccc(C#CCO[C@H]3CCN(C[C@H]4CC[C@H](n5cc(NC(=O)c6cnn7ccc(N8CCO[C@@H](CO)C8)nc67)c(C(F)F)n5)CC4)C[C@H]3F)c21 (single isomer, unassigned) [Chiral isomer 1 of compound 24] | > 40 µM |  |  |  |
|  |  | Cn1nc(C2CCC(=O)NC2=O)c2cccc(C#CCO[C@@H]3CCN(C[C@H]4CC[C@H](n5cc(NC(=O)c6cnn7ccc(N8CCO[C@@H](CO)C8)nc67)c(C(F)F)n5)CC4)C[C@@H]3F)c21 (single isomer, unassigned) [Trifluoroacetate salt of chiral isomer 2 of compound 19] | > 40 µM | 8300 ± 2850 ng·h/mL |  |  |
| < 0.02 µM |  | Cn1nc(C2CCC(=O)NC2=O)c2cccc(C#CCO[C@H]3CCN(C[C@H]4CC[C@H](n5cc(NC(=O)c6cnn7ccc(N8CCO[C@H](CO)C8)nc67)c(C(F)F)n5)CC4)C[C@H]3F)c21 (single isomer, unassigned) [Chiral isomer 1 of compound 25] | > 40 µM |  |  |  |
|  |  | Cn1c(=O)n(C2CCC(=O)NC2=O)c2cccc(C#CCOC3CCN(C[C@H]4CC[C@H](n5cc(NC(=O)c6cnn7ccc(N8C[C@H]9C[C@@H]8CO9)nc67)c(C(F)F)n5)CC4)CC3)c21 (some centres unmarked) [Control compound 1, reference compound] |  | 2320 ± 146 ng·h/mL | 0.642 µM |  |
|  | A (A ≤ 10%) | Cn1nc(C2CCC(=O)NC2=O)c2cccc(C#CCO[C@H]3CCN(C[C@H]4CC[C@H](n5cc(NC(=O)c6cnn7ccc(N8C[C@H]9C[C@@H]8CO9)nc67)c(C(F)F)n5)CC4)C[C@H]3F)c21 (some centres unmarked) [Compound 11] | > 30 µM | 8750 ± 4650 ng·h/mL |  |  |
| < 0.02 µM |  | Cn1nc(C2CCC(=O)NC2=O)c2cccc(C#CCO[C@H]3CCN(C[C@H]4CC[C@H](n5cc(NC(=O)c6cnn7ccc(N8CCO[C@H](CO)C8)nc67)c(C(F)F)n5)CC4)C[C@H]3F)c21 (single isomer, unassigned) [Chiral isomer 2 of compound 25] | > 40 µM |  |  |  |
|  | B (10% < B ≤ 50%) | Cn1nc(C2CCC(=O)NC2=O)c2cccc(C#CCO[C@H]3CCN(C[C@H]4CC[C@H](n5cc(NC(=O)c6cnn7ccc(N8C[C@H]9C[C@@H]8CO9)nc67)c(C(F)F)n5)CC4)C[C@@H]3F)c21 (some centres unmarked) [Compound 12] | > 30 µM |  |  |  |
|  | A (A ≤ 10%) | Cn1nc(C2CCC(=O)NC2=O)c2cccc(C#CCO[C@@H]3CCN(C[C@H]4CC[C@H](n5cc(NC(=O)c6cnn7ccc(N8C[C@H]9C[C@@H]8CO9)nc67)c(C(F)F)n5)CC4)C[C@@H]3F)c21 (some centres unmarked) [Compound 10] | > 30 µM | 17500 ± 5260 ng·h/mL |  |  |

| Compound | DC50 (IRAK4 protein) | Remaining IRAK4 protein IRAK4% (IRAK4 protein) | IC50 [1, 3] | AUC(0-t) [2, 4] | IC50 ([1]; IC50 for inhibitory effect on hERG potassium channel current) | AUC(0-t) [2] |
| --- | --- | --- | --- | --- | --- | --- |
| Cn1nc(C2CCC(=O)NC2=O)c2cccc(C#CCO[C@@H]3CCN(C[C@H]4CC[C@H](n5cc(NC(=O)c6cnn7ccc(N8CCO[C@@H](CO)C8)nc67)c(C(F)F)n5)CC4)C[C@@H]3F)c21 (single isomer, unassigned) [Chiral isomer 1 of compound 19] | < 0.02 µM |  | > 20 µM |  |  | 13407 ± 4034 ng·h/mL |
| COC[C@H]1CN(c2ccn3ncc(C(=O)Nc4cn([C@H]5CC[C@H](CN6CC[C@H](OCC#Cc7cccc8c(C9CCC(=O)NC9=O)nn(C)c78)[C@H](F)C6)CC5)nc4C(F)F)c3n2)CCO1 (single isomer, unassigned) [Chiral isomer 2 of compound 23] | < 0.02 µM |  | > 40 µM |  |  |  |
